Laboratory results taken from patent US9050278B2, “Scavenger of in vivo harmful reactive oxygen species and/or free radicals” (priority 2005, dated 2015).
Like-named read-outs stand apart in the source and are kept apart here.

How the values were obtained:
PC12 cells [1] = assay: Cell death induced by antimycin A, viable cell count; format: cell-based, Rat
Method: (§1) The cells were cultured with an incubator at 37° C. under 5% CO2.
(§2) The cells were cultured at 37° C. in a sealed state. […] The cells were cultured at 37° C.
(§3) After 24 hours, the number of viable cells having a pyramid-shaped cell form was counted under a phase contrast microscope.
(§4) PC12 cells were cultured in a collagen-coated 24-well cell culture dish (manufactured by IWAKI&Co. Ltd.). […] After 0, 1, 2, and 3 days, the number of viable cells having a pyramid-shaped cell form was counted under a phase contrast microscope.
(§5) Cell death was induced by antimycin A or menadione in the same way as in Examples 2 and 3. […] First, PC12 cells were cultured in a collagen-coated 24-well cell culture dish (manufactured by IWAKI&Co. Ltd.). […] After 24 hours, the number of viable cells having a pyramid-shaped cell form was counted under a phase contrast microscope.
as §3

PC12 cells [2] = assay: Cell death induced by menadione, viable cell count; format: cell-based, Rat
Method: as §1, §2, §3, §4, §5

[3] = neutral solution saturated with hydrogen molecules, room temperature
cytochrome c = assay: Reduction of cytochrome c in hydrogen water; format: biochemical; conditions: neutral solution saturated with hydrogen molecules, room temperature
Method: (§6) First, 1 l of water was injected into a 5-l pressure-resistant bottle (manufactured by UNICONTROLS. CO., LTD.).
(§7) After reaction at room temperature for 30 minutes, absorbance at 415, 400, and 340 nm, respectively, were measured with a spectrophotometer.

[4] = Elimination of superoxide by hydrogen water; format: biochemical; conditions: neutral solution saturated with hydrogen molecules, room temperature
Method: as §6
For superoxide (O2^−.), 25× Reaction Buffer, Xanthine Solution, and NBT Solution contained in […] […] Then, a Xanthine oxidase solution was added thereto to thereby generate O2^−.. NBT-diformazan accumulation was measured over time with a spectrophotometer at 550 nm.
as §7

PC12 cells [5] = conditions: antimycin A 10 μg/ml, 0.6 mM hydrogen, 30 minutes
Method: (§8) To generate .OH via O2^−., antimycin A was added to cells. […] The cells were cultured at 37° C.
(§9) In .OH detection, HPF (0.4 μM) was added to a cell medium, and the fluorescence image thereof was observed using a confocal laser scanning microscope (FV300 manufactured by Olympus Corp.) at an excitation wavelength of 488 nm and an […] wavelength of 510 nm. MitoTracker Green (1 μM; Molecular Probes) and MitoTracker Red (100 nM; Molecular Probes) were used in the staining of mitochondria. Anti-HNE and anti-8-OH-G antibodies were purchased from Nikken Seil Co., Ltd. Moreover, anti-TUJ-1 and anti-GFAP antibodies were purchased from Babco and Immunon, respectively.

[6] = tested on: cerebral ischemia-reperfusion injury
Method: In cerebral ischemia, diverse mechanisms generate reactive oxygen species, and .OH is detected after ischemia-reperfusion. Rats were rendered locally ischemic for 90 minutes by mild cerebral artery occlusion and subsequently reperfused for 30 minutes. […] FK506 (1 mg/kg of body weight) was administered into the blood once immediately before reperfusion. Edaravone (3 mg/kg of body weight) was administered into the blood twice immediately before reperfusion and immediately after reperfusion. After anesthesia, the rats were maintained at 20° C. under usual air. […] After 1 day of mild cerebral artery occlusion, the brain was sliced, and the slices were stained with 2,3,5-triphenyltetrazolium salt (TTC) capable of serving as a substrate in mitochondrial respiration process. After 1 week, the animals were put under anesthesia. Then, the brain was rapidly excised and fixed with 10% formalin. The paraffin-embedded brain was sliced into a thickness of 6 μm, and the slices were stained with hematoxylin-eosin. Moreover, VECSTAIN ABC Kit was used in staining with antibodies. Anti-Iba-I antibodies were purchased from Wako Pure Chemical Industries, Ltd. Image analysis software (Mac Scope ver. 2.55; Mitsuya Shoji) was used in slide analysis. All the animal experiments were conducted according to the guideline of the animal commission of Nippon Medical School.
An infarct volume was estimated by measuring visually white regions in the brain. […] For comparison, two compounds were further tested. […] The other compound was FK506, which is under clinical trial for cerebral infarction in USA. […] The brain infarct volume was calculated as a total sum of all the slices according to the equation: infarct area×thickness.
Rats were rendered locally ischemic for 90 minutes by mild cerebral artery occlusion and subsequently reperfused for 30 minutes. […] The brain was cut by coronal section into 6 slices after 1 day of mild cerebral artery occlusion, and the slices were stained with TTC.
The photographs of FIG. 28 are the staining images of 3 different slices obtained by this method. […] An average value of infarct volumes and standard deviation were determined from the values of 6 animals in each group. *P<0.05, **P<0.01, ***P<0.001.
The brain was fixed after 3 days or 7 days of mild cerebral artery occlusion and embedded in paraffin. The coronal sections of 6 μm in thickness were stained with anti-8-OH-G, anti-HNE, or anti-GFAP antibodies. The left photographs of FIGS. 31 to 33 show the same regions adjacent to occlusion in the temporal cortical regions. The scale bar denotes 100 μm.
In the staining experiment, the brain was fixed after 3 days or 7 days of mild cerebral artery occlusion and embedded in paraffin. The coronal sections were stained with each antibody. The photographs of FIG. 34 show the central regions of occlusion in the temporal cortical regions. The scale bar of FIG. 34 denotes 200 μm. The scale bar in the inserted photographs of FIG. 34 denotes 100 μm. In FIG. 35, an average value of the number of Iba-1-positive cells in a certain field and standard deviation were determined from 6 animals in each group. *P<0.05. […] Microglia accumulation serves as an indicator for a brain disorder.

[7] = Reduction of NAD+ in hydrogen water; format: biochemical; conditions: neutral solution saturated with hydrogen molecules, room temperature
Method: as §6, §7

[8] = Elimination of nitrogen monoxide by hydrogen water; format: biochemical; conditions: neutral solution saturated with hydrogen molecules, room temperature
Method: First, 1 l of water was injected into a 5-l pressure-resistant bottle (manufactured by UNICONTROLS. CO., LTD.). […] After reaction at room temperature for 30 minutes, 1 μM 5-(and -6)-chloromethyl-2′,7′-dichlorodihydrofluorescein diacetate (DCFDH; manufactured by Molecular Probe, USA) was subsequently added thereto. The amount of NO remaining was measured with a fluorescence analyzer (manufactured by TECAN, Austria) at an excitation wavelength of 485 nm. […] After reaction at room temperature for 30 minutes, absorbance at 415, 400, and 340 nm, respectively, were measured with a spectrophotometer.

[9] = neutral solution saturated with hydrogen molecules, room temperature; remark: listed apart in the source
[10] = Elimination of hydrogen peroxide by hydrogen water; format: biochemical; conditions: neutral solution saturated with hydrogen molecules, room temperature
Method: as §6
After reaction at room temperature for 30 minutes, 0.2 M phosphate buffer (pH 7.2) containing an equal amount of 20 μM DCFDA was subsequently added thereto. After reaction for 10 minutes, the amount of H2O2 remaining was measured with a fluorescence analyzer at an excitation wavelength of 485 nm.
as §7

skeletal muscle = tested on: skeletal muscle
Method: It has been known that strenuous exercise and the sudden stop of exercise generate free radicals and damage various tissues including muscles. […] Rats (Wister Rats, 8 week old, male) were run at a speed of 40 m/min. for 20 minutes. […] After 30 minutes, the rats were slaughtered. The skeletal muscle was excised. […] The method was conducted according to Sakai, Y., Iwamura, Y., Hayashi, J., Yamamoto, N., Ohkoshi, N., Nagata, H., Acute exercise causes mitochondrial DNA deletion in rat skeletal muscle., Muscle and Nerve 22: 256-261, 1999.

[11] = Reduction of FAD in hydrogen water; format: biochemical; conditions: neutral solution saturated with hydrogen molecules, room temperature
Method: as §6, §7

PC12 cells [12] = conditions: antimycin A 10 μg/ml, 0.6 mM hydrogen, 24 hours
Method: as §8, §9
The scale bars in FIGS. 16 and 18 denote 100 μm. Immunostaining intensities with anti-8-OH-G (FIG. 17) and anti-HNE (FIG. 19) antibodies were quantified using NIH Image software. […] Average values and standard deviations were determined from 4 independent experiments. *P<0.05, **P<0.01, ***P<0.001.

[13] = tested on: cerebral cortex-derived primary cultured neuronal cells
Method: Rat cerebral cortex-derived primary cultured cells were used to induce oxidative stress under more physiological conditions.
Rat cerebral cortex-derived primary cultured neuronal cells were prepared from a 16-day-old fetus. The cerebral cortex was cut after meninges removal and digested with a protease mixed solution (SUMILON). The slices were mechanically dissociated with a pipette. Then, the cells were dispersed in a nerve cell culture medium (SUMILON) and seeded at a cell density of 5×10^4 cells/cm^2 in a plate coated with poly-L-lysine. The medium was replaced every three days by Neurobasal Medium (Gibco) containing B-27 (Gibco). The cells cultured for 11 days were used in the experiment. One day before the creation of an oxygen-glucose-deficient state, the medium was replaced by Neurobasal Medium (Gibco) containing B-27 minus AO (Gibco). […] 90% or more of the cells were neuronal cells.
To terminate the oxygen-glucose-deficient state, the medium was replaced again by the medium used before replacement. Culture was further continued at 37° C. in 95% air/5% carbon dioxide atmosphere.
After 10 minutes of the termination of the oxygen-glucose-deficient state, the amount of .OH was measured based on HPF fluorescence. […] To prepare a control, cells were treated with a DMEM medium containing glucose and oxygen, instead of being exposed to an oxygen-glucose-deficient state. […] An average value and standard deviation was determined from 4 independent experiments. **P<0.01.
After 1 day of oxygen-glucose deficiency, the viable neuronal cells were further detected by staining neuron-specific anti-TUJ-1 antibody. […] Average values and standard deviations shown in FIGS. 23 and 24 were determined from 4 independent experiments. ^#<0.0001 in FIG. 23, *P<0.05 in FIG. 24.

[14] = hydrogen pressure of 1 atm and room temperature; cited from earlier work
[15] = room temperature, neutral conditions, without catalysts, HPF fluorescence
From the text: RF-5300PC (manufactured by Shimadzu Corp.) was used in fluorescence intensity measurement.
The .OH was monitored with a spectrofluorometer.

[16] = tested on: ischemia-reperfusion injury in the liver; conditions: untreated 74
From the text: Mice (C57BL/6 line, 5 week old, male) were put under general anesthesia by supplying mixed anesthetic gases (oxygen: 0.3 L/min., nitrous oxide: 0.7 L/min., Sevofrane (Maruishi Pharmaceutical Co., Ltd.): 3%) thereto with a small animal general anesthesia machine Soft Lander (Neuroscience Inc.). After anesthesia introduction, the anesthesia was maintained for a long time by supplying thereto a mixed anesthetic gas containing Sevofrane at a concentration reduced to 1.5% (oxygen: 0.3 L/min., laughing gas: 0.7 L/min., Sevofrane: 1.5%). Surgical skills (reference: Yadav, S. S. et al., Transplantation 65, 1433-1436 (1998)) shown below were used to prepare model animals with local ischemia-reperfusion injury in the liver. The model animals were examined by hematoxylin-eosin staining (H&E staining) for tissue degeneration in the ischemic liver and hepatic parenchymal cell death induced by ischemia-reperfusion injury.
The belly was opened in the middle thereof. Three canals, portal vein, hepatic artery, and bile duct, leading to the left robe of the liver were together blocked (ischemia start) with a micro-clamp (FD562; Aesculap, South San Francisco, Calif., USA). The belly was sutured with a silk thread. After 90 minutes, the belly was opened again by removing the silk thread used for suture, and the micro-clamp was removed (reperfusion start). The belly was sutured again with a silk thread. The left robe of the liver was reperfused for 3 hours under anesthesia. […] After reperfusion for 3 hours, the left robe of the liver (ischemic liver) was excised and cut into fine strip slices. The slices were fixed by dipping in 10% neutral buffered formalin solution (Wako Pure Chemical Industries, Ltd.).
The fixed ischemic liver slices were subjected to dehydration with ethyl alcohol, dehydrating agent removal with xylene, and paraffin infiltration in an automatic embedding apparatus (SAKURA, Tissue-Tek VIPS). The paraffin-embedded ischemic liver was cut into slices of 3 μm to 5 μm in thickness with a sledge microtome. The slices were attached to slide glass. […]

[17] = 2% hydrogen gas inhalation vs non-inhalation
[18] = brain fixed after 3 days or 7 days of occlusion

Cc1c(C)c2c(c(C)c1O)CC[C@@](C)(CCC[C@H](C)CCC[C@H](C)CCCC(C)C)O2 [alpha-tocopherol, reference compound]
number of viable cells / inhibitory effects on cell death (PC12 cells [1]; antimycin A 10 μg/mL, 24 hours, vs hydrogen-free medium, alpha-tocopherol 100 μM (Example 5)): observed, albeit weaker than those of hydrogen
number of viable cells / inhibitory effects on cell death (PC12 cells [2]; menadione 3 μM, 24 hours, vs hydrogen-free medium, alpha-tocopherol 100 μM (Example 5)): significant effects on menadione were not observed

[HH] [hydrogen molecules, hydrogen]
reduction of Fe^3+ [3]: does not reduce
reduction of oxidized cytochrome c containing trivalent heme iron (cytochrome c): does not reduce
reduction of O2^−. [4]: do not reduce
.OH levels (HPF fluorescence) (PC12 cells [5]): reduced .OH levels
durability of cell death inhibitory effects (time course) (PC12 cells [1]; antimycin A 30 μg/mL, 0, 1, 2 and 3 days): confirmed even on the 2nd day or later
hydrogen concentration at which cell death could still be inhibited significantly (PC12 cells [1]; antimycin A 30 μg/mL, 24 hours, approximately 1/16 of the saturated hydrogen concentration): 50 µM
body temperature [6, 17]: improved
body weight [6, 17]: improved
brain infarct volume (TTC staining) ([6]; 2% hydrogen gas inhaled only during ischemia but not during reperfusion, 1 day): not reduced
most effective hydrogen concentration for reduction of infarct volume ([6]; 1 day after occlusion, inhaled gas 0 to 4% (v/v) hydrogen): 2%
brain infarct volume (TTC staining) ([6]; 1 day after occlusion, inhaled hydrogen 0 to 4% (v/v) for 120 minutes in total): Hydrogen concentration-dependent reductions in infarct volume were obviously observed
alleviation of an oxidative disorder compared with Edaravone and FK506 ([6]; Edaravone 6 mg/kg of body weight, FK506 1 mg/kg of body weight): more effective for the alleviation of an oxidative disorder than any of the other compounds tested
difference in infarct volume between hydrogen-treated and hydrogen-untreated group (hematoxylin-eosin) ([6]; after 1 week of occlusion): more significant after 1 week
oxidation marker stainings (anti-8-OH-G, anti-HNE, anti-GFAP positive cells) [6, 18]: significantly reduced
staining with microglia-specific anti-Iba-I antibodies [6, 18]: significantly reduced
durability of cell death inhibitory effects (time course) (PC12 cells [2]; menadione 10 μM, 0, 1, 2 and 3 days): confirmed even on the 2nd day or later
reduction of NAD^+ [7]: does not reduce
reduction of nitrogen monoxide [8]: do not reduce
reduction of Cu^2+ [9]: does not reduce
reduction of hydrogen peroxide [10]: do not reduce
deletion in mitochondrial DNA (PCR) (skeletal muscle; rats after exercise that ingested hydrogen (inhalation or intraperitoneal saline containing supersaturated hydrogen)): reduced
damage in the muscular tissues (H&E staining) (skeletal muscle; rats run 40 m/min. for 20 minutes, then air containing 10% hydrogen gas for 30 minutes): alleviate damage in the muscular tissues
reduction of FAD [11]: does not reduce
accumulation of 4-hydroxy-2-nonenal (HNE) (PC12 cells [12]): inhibition of accumulation
oxidized guanine (8-OH-G) level (PC12 cells [12]): protected nuclear DNA from oxidation
increase in the amount of .OH (HPF fluorescence) ([13]; 10 minutes after termination of 60 minutes oxygen-glucose-deficient state, 95% hydrogen/5% carbon dioxide vs nitrogen): not observed in the presence of hydrogen
number of viable neuronal cells ([13]; 1 day after oxygen-glucose deficiency, anti-TUJ-1 staining): increased the number of viable neuronal cells
viability of neuronal cells (cell count, modified MTT method) ([13]; 1 day after oxygen-glucose-deficient state): increased their viabilities
amount of hydrogen that can be dissolved per L of water [14]: approximately 17.5 mL per L
hydroxyl radicals (.OH) levels [15]: reduce hydroxyl radicals (.OH) levels
Degenerated region in liver tissues (%) ([16]; hydrogen gas flow rate 0.04 L/min., from 10 minutes before reperfusion start through whole reperfusion period (280 minutes in total)): 26%
Degenerated region in liver tissues (%) ([16]; hydrogen gas flow rate 0.1 L/min., from 5 minutes before reperfusion start to 5 minutes after reperfusion start (10 minutes in total)): 20%
Degenerated region in liver tissues (%) ([16]; hydrogen gas flow rate 0.2 L/min., from 5 minutes before reperfusion start to 5 minutes after reperfusion start (10 minutes in total)): 10%
